In BindingDB's records for doi:10.7270/Q28G8J4C (Broad Institute, 2009) one finds EC50 data, which are given here for 41 compounds.

The structures appear in SMILES notation.

In this assay the target is T1, POsterior Segregation (Caenorhabditis elegans, UniProt G5EF15).
T1 sequence (G5EF15 whole entry): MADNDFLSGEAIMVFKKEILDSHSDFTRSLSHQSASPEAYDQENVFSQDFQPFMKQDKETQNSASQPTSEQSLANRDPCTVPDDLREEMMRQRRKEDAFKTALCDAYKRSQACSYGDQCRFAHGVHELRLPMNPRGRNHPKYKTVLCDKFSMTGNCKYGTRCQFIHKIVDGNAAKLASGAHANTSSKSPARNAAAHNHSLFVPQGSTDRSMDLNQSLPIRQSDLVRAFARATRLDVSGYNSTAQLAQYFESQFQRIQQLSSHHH
Nature of the assay: disruptors of C. elegans POS-1 RNA interaction – biochemical, fluorescence polarization, dose response (AID 1964). On the technique in general: In fluorescence polarisation assays a small probe gives low polarisation when free and higher when bound to something large.

In general, EC50 refers to the concentration needed to bring the measured effect to its halfway point. A low value points to a more potent agent. In the case of `CCOc1cc(C2C(C(C)=O)=C(C)OC(=N)C2C#N)cc(Br)c1O` (stereo unspecified) [2-azanyl-4-(3-bromanyl-5-ethoxy-4-oxidanyl-phenyl)-5-ethanoyl-6-methyl-4H-pyran-3-carbonitrile], the EC50 amounted to 12.3 µM. In the case of `N#CC1C(=N)OC2=C(C(=O)CCC2)C1c1cc2c(cc1Br)OCO2` (stereo unspecified) [2-azanyl-4-(6-bromanyl-1,3-benzodioxol-5-yl)-5-oxidanylidene-4,6,7,8-tetrahydrochromene-3-carbonitrile], the EC50 is above 300 µM. For `N#CC1C(=N)OC2=C(C(=O)CC(c3ccco3)C2)C1c1ccc(OCc2c(F)cccc2Cl)cc1` (stereo unspecified) [2-azanyl-4-[4-[(2-chloranyl-6-fluoranyl-phenyl)methoxy]phenyl]-7-(furan-2-yl)-5-oxidanylidene-4,6,7,8-tetrahydrochromene-3-carbonitrile] the value was above 300 µM; for `CC(N=Nc1ccc(Cl)c(C(=O)O)c1)c1ccc[nH]1` (stereo unspecified) [2-chloro-5-[2-[(1Z)-1-pyrrol-2-ylideneethyl]hydrazinyl]benzoic acid], above 300 µM; for `O=C(O)c1cc(-c2ccc(CN=Nc3ccc([N+](=O)[O-])cn3)o2)ccc1Cl` [2-chloro-5-[5-[[(5-nitropyridin-2-yl)hydrazinylidene]methyl]furan-2-yl]benzoic acid], 31 µM. For `CC1(C)CC(=O)C2=C(C1)OC(=N)C(C#N)C2c1cccc(OC(=O)c2ccco2)c1` (stereo unspecified) [2-furancarboxylic acid [3-(2-amino-3-cyano-7,7-dimethyl-5-oxo-6,8-dihydro-4H-1-benzopyran-4-yl)phenyl] ester] the value was above 300 µM; for `COc1[nH]c(N=Cc2ccccc2)c(C#N)c1C#N` [2-methoxy-5-[(phenylmethylene)amino]-1H-pyrrole-3,4-dicarbonitrile], 6.46 µM; for `O=C1c2cccc3cccc(c23)C(=O)C1[N+](=O)[O-]` [2-nitro-3-oxidanyl-phenalen-1-one], 12.6 µM. The figure for `Cc1ncc(CO)c(CNNC(=O)C2=CC(=O)C(=O)C(=O)C2)c1O` [3,4,5-trihydroxy-N'-{(1E)-[3-hydroxy-5-(hydroxymethyl)-2-methylpyridin-4-yl]methylene}benzohydrazide] is 71.2 µM. Regarding `C=CCOc1cccc(C2C(C(=O)c3cc4ccccc4o3)C(=O)C(=O)N2c2cc(C)on2)c1` (stereo unspecified) [3-(1-benzofuran-2-carbonyl)-4-hydroxy-1-(5-methyl-1,2-oxazol-3-yl)-2-(3-prop-2-enoxyphenyl)-2H-pyrrol-5-one], the EC50 is above 300 µM.

For the compound `Cc1cc(N2C(=O)C(=O)C(C(=O)c3cc4ccccc4o3)C2c2ccc([N+](=O)[O-])cc2)no1` (stereo unspecified) [3-(1-benzofuran-2-carbonyl)-4-hydroxy-1-(5-methyl-1,2-oxazol-3-yl)-2-(4-nitrophenyl)-2H-pyrrol-5-one], the concentration for a half-maximal effect (EC50) is above 300 µM. For `C=CCOc1cccc(C2C(C(=O)c3ccc(C)o3)C(=O)C(=O)N2c2nnc(C)s2)c1` (stereo unspecified) [3-(5-methylfuran-2-yl)carbonyl-1-(5-methyl-1,3,4-thiadiazol-2-yl)-4-oxidanyl-2-(3-prop-2-enoxyphenyl)-2H-pyrrol-5-one] the value was above 300 µM; for `C=CCOc1cccc(C2C(C(=O)c3ccc(C)o3)C(=O)C(=O)N2c2nccs2)c1` (stereo unspecified) [3-(5-methylfuran-2-yl)carbonyl-4-oxidanyl-2-(3-prop-2-enoxyphenyl)-1-(1,3-thiazol-2-yl)-2H-pyrrol-5-one], above 300 µM. As for `CCCOc1cccc(C2C(C(=O)c3ccco3)C(=O)C(=O)N2c2nnc(C)s2)c1` (stereo unspecified) [3-(furan-2-carbonyl)-4-hydroxy-1-(5-methyl-1,3,4-thiadiazol-2-yl)-2-(3-propoxyphenyl)-2H-pyrrol-5-one], a half-maximal effect (EC50) was put at 51.9 µM.

On to `C=CCOc1ccc(C2C(C(=O)c3ccco3)C(=O)C(=O)N2c2nnc(C)s2)cc1` (stereo unspecified) [3-(furan-2-carbonyl)-4-hydroxy-1-(5-methyl-1,3,4-thiadiazol-2-yl)-2-(4-prop-2-enoxyphenyl)-2H-pyrrol-5-one], for which the half-maximal effective concentration (EC50) was above 300 µM. For the compound `Cc1nnc(N2C(=O)C(=O)C(C(=O)c3ccco3)C2c2cccc3ccccc23)s1` (stereo unspecified) [3-(furan-2-carbonyl)-4-hydroxy-1-(5-methyl-1,3,4-thiadiazol-2-yl)-2-naphthalen-1-yl-2H-pyrrol-5-one], the EC50 was above 300 µM. Compound `CSc1nnc(N2C(=O)C(=O)C(C(=O)c3ccco3)C2c2ccccc2)s1` (stereo unspecified) [3-(furan-2-carbonyl)-4-hydroxy-1-(5-methylsulfanyl-1,3,4-thiadiazol-2-yl)-2-phenyl-2H-pyrrol-5-one] came in with a concentration giving a half-maximal response (EC50) above 300 µM. The figure for `O=C1C(=O)N(c2ncccn2)C(c2cccs2)C1C(=O)c1ccco1` (stereo unspecified) [3-(furan-2-carbonyl)-4-hydroxy-1-pyrimidin-2-yl-2-thiophen-2-yl-2H-pyrrol-5-one] is 39.9 µM; for `COc1ccc(C2C(C(=O)c3ccco3)C(=O)C(=O)N2c2nnc(C)s2)cc1` (stereo unspecified) [3-(furan-2-carbonyl)-4-hydroxy-2-(4-methoxyphenyl)-1-(5-methyl-1,3,4-thiadiazol-2-yl)-2H-pyrrol-5-one] it is 109 µM; for `Cc1ccc(C2C(C(=O)c3ccco3)C(=O)C(=O)N2c2nnc(C)s2)cc1` (stereo unspecified) [3-(furan-2-carbonyl)-4-hydroxy-2-(4-methylphenyl)-1-(5-methyl-1,3,4-thiadiazol-2-yl)-2H-pyrrol-5-one] it is above 300 µM. The figure for `CSc1ccc(C2C(C(=O)c3ccco3)C(=O)C(=O)N2c2nnc(SC)s2)cc1` (stereo unspecified) [3-(furan-2-carbonyl)-4-hydroxy-2-(4-methylsulfanylphenyl)-1-(5-methylsulfanyl-1,3,4-thiadiazol-2-yl)-2H-pyrrol-5-one] is 6.79 µM. Consider `O=C1Nc2ccccc2C1=NNc1ccccc1` [3-(phenylhydrazo)-2-indolone], for which a half-maximal effect (EC50) was put at 7.37 µM. For `N#CC1C(=N)C2=C(N3CCCCC3)CCCC2C1(C#N)C#N` (stereo unspecified) [3-Amino-4-piperidin-1-yl-5,6,7,7a-tetrahydro-indene-1,1,2-tricarbonitrile] the value was 89.4 µM; for `COc1ccc(N2C(=O)C(=Nc3ccccc3O)C(Cl)C2=O)cc1` (stereo unspecified) [3-Chloro-4-(2-hydroxy-phenylamino)-1-(4-methoxy-phenyl)-pyrrole-2,5-dione], above 300 µM. Consider `O=C1C(=Nc2ccccc2O)C(Cl)C(=O)N1c1ccccc1` (stereo unspecified) [3-Chloro-4-(2-hydroxy-phenylamino)-1-phenyl-pyrrole-2,5-dione], for which the EC50 is above 300 µM. The figure for `O=c1c2ccccc2nc(N=NCc2ccc(O)cc2)n1O` [3-Hydroxy-2-{N'-[1-(4-hydroxy-phenyl)-meth-(E)-ylidene]-hydrazino}-3H-quinazolin-4-one] is above 300 µM; for `Cc1cc(CN=Nc2ccc([N+](=O)[O-])cn2)c(C)n1-c1cccc(C(=O)O)c1` [3-[2,5-dimethyl-3-[[(5-nitro-2-pyridinyl)hydrazinylidene]methyl]-1-pyrrolyl]benzoic acid] it is above 300 µM. For `O=NCc1cccn1-c1cccc(C(=O)O)c1` [3-[2-(hydroximinomethyl)pyrrol-1-yl]benzoic acid] the value was above 300 µM; for `Cc1[nH]n(C(N)=S)c(=O)c1N=Nc1cccc(C(=O)O)c1` [3-[(1-carbamothioyl-3-methyl-5-oxo-4H-pyrazol-4-yl)diazenyl]benzoic acid], 35.1 µM; for `O=[N+]([O-])c1cc([CH+][N-]n2c(O)csc2=S)ccc1Cl` [3-[(4-chloranyl-3-nitro-phenyl)methylideneamino]-2-sulfanylidene-1,3-thiazolidin-4-one], 18.6 µM. In turn, `Oc1ccc(C=Nn2c(O)csc2=S)c(O)c1O` [3-[[(E)-[2,3-bis(oxidanyl)-4-oxidanylidene-cyclohexa-2,5-dien-1-ylidene]methyl]amino]-2-sulfanylidene-1,3-thiazolidin-4-one] registered an EC50 of 5.17 µM. The figure for `N#CC1C(=N)Oc2ccc3ccc(O)cc3c2C1c1ccsc1` (stereo unspecified) [3-amino-9-hydroxy-1-(3-thienyl)-1H-benzo[f]chromene-2-carbonitrile] is 76.1 µM; for `CCCCOc1c(Br)cc(CN=O)cc1OCC` [3-bromo-4-butoxy-5-ethoxy-benzaldoxime] it is above 300 µM. The figure for `COc1ccccc1N1C(=O)C(=Nc2ccccc2O)C(Cl)C1=O` (stereo unspecified) [3-chloranyl-4-[(2-hydroxyphenyl)amino]-1-(2-methoxyphenyl)pyrrole-2,5-dione] is 34.7 µM; for `O=C1C=C(NNC(=O)c2sc3ccccc3c2Cl)CCC1` [3-chloranyl-N-[(3-oxidanylidenecyclohexylidene)amino]-1-benzothiophene-2-carboxamide] it is 22 µM; for `CC(C)c1nnc(N2C(=O)C(=O)C(C(=O)c3cccs3)C2c2ccccc2)s1` (stereo unspecified) [3-hydroxy-1-(5-isopropyl-1,3,4-thiadiazol-2-yl)-5-phenyl-4-(2-thenoyl)-3-pyrrolin-2-one] it is 33.9 µM. For `Cc1[nH]n(C(N)=S)c(=O)c1N=Nc1ccc(S(N)(=O)=O)cc1` [3-methyl-5-oxidanylidene-4-[(4-sulfamoylphenyl)diazenyl]-4H-pyrazole-1-carbothioamide] the value was 19.7 µM; for `O=C1CC(=O)c2c(O)cc(O)c(O)c2C1=O` [4,5,7,8-tetrahydroxy-1,2-naphthoquinone], 1.07 µM. The compound `COc1cc(C2C3=C(CCCC3=O)OC(=N)C2C#N)cc(OC)c1OC(=O)N1CCOCC1` (stereo unspecified) [4-(2-amino-3-cyano-5-oxo-5,6,7,8-tetrahydro-4H-chromen-4-yl)-2,6-dimethoxyphenyl morpholine-4-carboxylate] yielded a concentration giving a half-maximal response (EC50) above 300 µM. The figure for `COc1cc(C2C3=C(CCCC3=O)OC(=N)C2C#N)ccc1OC(=O)N1CCOCC1` (stereo unspecified) [4-(2-amino-3-cyano-5-oxo-5,6,7,8-tetrahydro-4H-chromen-4-yl)-2-methoxyphenyl morpholine-4-carboxylate] is above 300 µM; for `N#CC1C(=N)OC2=C(C(=O)CCC2)C1c1ccc(OC(=O)N2CCOCC2)cc1` (stereo unspecified) [4-(2-amino-3-cyano-5-oxo-5,6,7,8-tetrahydro-4H-chromen-4-yl)phenyl morpholine-4-carboxylate] it is above 300 µM.
